Measurements taken from US11179348B2, “Combination comprising pterostilbene for the treatment of cancer” (FUNDACIÓN UNIVERSIDAD CATÓLICA DE VALENCIA SAN VICENTE …, priority 2015, dated 2021).

Columns and labels:
BxPC-3 cells = assay: Effect of Pter on BxPC-3 cell growth or viability in vitro; format: cell-based, human; conditions: 15 μM Pter×60 min every 24 h
Protocol: FIG. 11. In vivo effect of Pter on human pancreatic cancer growth. […] For the doses of 20 and 40 mg Pter/kg only the point at the end of the treatment period is shown.
Human A2058, MeWo and MelJuso melanoma cells, and mouse AtT-20 pituitary corticotroph tumor cells were from the American Type Culture Collection (ATCC). Human HEMa-LP epidermal melanocytes were from Life Technologies (Grand Island, N.Y.). Human MDA-MB-231 (triple negative: ER−, PR−, HER2−) and MCF-7 (ER+, PR+, HER2−) breast adenocarcinoma, A549 lung adenocarcinoma (NSCLC), HepG2 hepatocellular carcinoma, LNCaP (AR+) and PC-3 (AR−) prostate adenocarcinoma, SK-OV-3 epithelial ovarian carcinoma, and HT-29 and Caco-2 colorectal carcinoma cells were from the American Type Culture Collection. Cells were grown in Dulbecco's modified Eagle's medium (DMEM) (Invitrogen, San Diego, Calif.), pH 7.4, supplemented with 10% heat-inactivated FCS (Biochrom KG, Berlin, Germany), 100 units/ml penicillin and 100 μg/ml streptomycin. Cells were plated, at a density of 20,000 cells/cm2, and cultured at 37° C. in a humidified atmosphere with 5% CO2. […] Cell numbers were determined using a Coulter Counter (Coulter Electronic Inc., Miami, Fla.). […] Cellular viability was assessed as previously reported (Mena, S. et al. Clin Cancer Res 13, 2658-2666 (2007)), by measuring trypan blue exclusion and leakage of lactate dehydrogenase activity.

HepG2 cells = assay: GSH levels and glutathione- and oxidative stress-related enzyme activities in HepG2 cells growing in vivo; design: species or system human; conditions: HepG2, in vivo Pter, day 35
Protocol: (§1) To measure enzyme activity, isolated tumor cells were homogenized in 0.1 M phosphate buffer (pH 7.2) at 4° C. GCL and GSS activities were measured as described previously (Obrador, E. et al. Hepatology 35, 74-81 (2002)). GPX (selenium dependent) activity was measured as described by Flohé and Gunzler (Flohe, L. & Gunzler, W. A. Methods Enzymol 105, 114-121 (1984)) using H2O2 as a substrate. GSR activity was determined as described by Akerboom and Sies (Akerboom, T. P. et al, Bull Eur Physiopathol Respir 17 Suppl, 221-227 (1981)). GGT activity was measured as described previously (Obrador, E. et al. Hepatology 35, 74-81 (2002)). GST activity was measured using an assay kit from Sigma. TXNRD activity, defined by the concentration of sodium-lipoate (disulfide) reduced to dehydrolipoate (dithiol) per milligram protein, was measured as previously described (Javvadi, P. et al. Cancer Res 70, 1941-1950 (2010)). SOD activity was measured as described by Flohé and Otting (Flohe, L. & Otting, F. Methods Enzymol 105, 93-104 (1984).) using 2 mM cyanide in the assay medium to distinguish mangano-type enzyme (SOD2) from the cuprozinc type (SOD1). CAT activity was analyzed as described by Aebi (Aebi, H. Methods Enzymol 105, 121-126 (1984)). NOX activity was measured by chemiluminescence following the methodology of Wind et al. (Wind, S. et al. Comparative pharmacology of chemically distinct NADPH oxidase inhibitors. Br J Pharmacol 161, 885-898 (2010)). Protein concentration was determined with the Pierce BCA protein assay (Fisher Scientific, Waltham, Mass.).
(§2) GSH, GSSG, NADP^+ and NADPH Determination.
(§3) GSH and GSSG were determined, following procedures previously described (Obrador, E. et al. PLoS One 9, e96466 (2014)), by LC/MS using the same equipment described above for pterostilbene determination. Cell processing was performed according to published methodology, where rapid N-ethylmaleimide derivatization was used to prevent GSH auto-oxidation (Asensi, M. et al. Anal Biochem 217, 323-328 (1994)). NADP^+ and NADPH were quantitated using an assay kit from Sigma (St. Louis, Mo.).
(§4) Isolation of Tumor Cells from Mouse Xenografts Using Enzymatic Digestion and a double Ficoll gradient.
(§5) To maximize the amount of isolated cells, avoiding the use of RFP-transfected cells and subsequent laser microdissection, an alternative methodology was set up. To maximize cell yield and viability the following combination of enzymes was used: collagenase III (200 U/ml; Sigma-Aldrich), DNase I (200 U/ml; Sigma-Aldrich) and trypsin (5 mg/ml; Invitrogen), and a non-enzymatic dissociation buffer (NEDB, Invitrogen). Briefly, mice were killed, and tumors were removed (avoiding skin, muscle and fat) into cold culture media and processed immediately. The tumors were minced into 1-3 mm fragments, which were then incubated with the dissociation solution (see above) for 30 min at 37° C. The tumor fragments were mixed up and down every 10 min using a […] micropipette with a tip cut to a diameter adapted to tissue fragment size. After each incubation period, the fragments were filtered through a […] nylon mesh cell strainer (BD Biosciences, San Diego, Calif., USA). The released cells were centrifuged at 1200 r.p.m. for 2 min and stored in cold CO2-independent medium with 30% FCS at […]. Fresh dissociation solution was added to the remaining tissue fragments for 30 min. Dissociation was stopped when no additional cells were released. The fragments were pushed through a sieve and all cells from all incubation periods were pooled and counted.
(§6) The dissociated cells were layered onto a double Ficoll gradient (Histopaque; Sigma-Aldrich; densities 1.077 and 1.119) and spun at 700 g for 30 min at room temperature. Cells removed from both interfaces were pooled and washed two times in CO2-independent medium and stored at 4° C. Debris and red blood cell elimination was improved with the dual-density gradient. […]

HT-29 human colon cancer = conditions: 20 μM Pter, 24 h, in vitro; cited from earlier work
A549 cells = assay: GSH levels and glutathione- and oxidative stress-related enzyme activities in A549 cells growing in vivo; design: species or system human; conditions: A549, in vivo Pter, day 35
Protocol: as §1, §2, §3, §4, §5, §6

COc1cc(/C=C/c2ccc(O)cc2)cc(OC)c1 [Pter, trans-3,5-dimethoxy-4′-hydroxystilbene]
cell growth or viability in vitro (BxPC-3 cells): did not affect
CAT (HepG2 cells): 1.1 ± 0.3 mU/10^6 cells
GCL (HepG2 cells): 50 ± 15 mU/10^6 cells
GSH (HepG2 cells): 8.5 ± 2.6 nmol/10^6 cells
GSS (HepG2 cells): 4.8 ± 0.9 mU/10^6 cells
GSSG (HepG2 cells): 0.3 ± 0.1 nmol/10^6 cells
SOD1 (HepG2 cells): 0.1 ± 0.02 U/10^6 cells
SOD2 (HepG2 cells): 0.02 ± 0.01 U/10^6 cells
decrease in tumor cell viability (HT-29 human colon cancer): ~10%
CAT (A549 cells): 0.3 ± 0.01 mU/10^6 cells
GCL (A549 cells): 39 ± 16 mU/10^6 cells
GSH (A549 cells): 4.7 ± 1.5 nmol/10^6 cells
GSS (A549 cells): 3.9 ± 1.0 mU/10^6 cells
GSSG (A549 cells): 0.2 ± 0.07 nmol/10^6 cells
SOD1 (A549 cells): 0.5 ± 0.1 U/10^6 cells
SOD2 (A549 cells): 0.04 ± 0.01 U/10^6 cells
